Laboratory results from article PMC7849180 (Frontiers in Pharmacology, 2020).
Where a name gives a salt, the structure may show the parent alone. Read-outs that look alike come from different tables or passages of the source.

Legend:
myelofibrosis [1] = details: cited from earlier work
myelofibrosis [2] = details: ref Momelotinib extension study; cited from earlier work
myelofibrosis [3] = tested on: myelofibrosis; design: method as in RA Abdelrahman et. al.; details: ref RA Abdelrahman et. al., cited from earlier work; for CR / Clinical Improvement (CI) / PR: 2013 IWG-MRT criteria; for patients with symptom improvement: 2013 IWG-MRT-ELN criteria
[4] = tested on: J53Z1 cells harboring the JAK2V617F mutation and HCD-57 cells transfected with oncogenic mutations; assay: Growth of cell lines transfected with oncogenes; assay type: cell-based
From the text: (§1) Suzhou Zelgen Biopharmaceuticals Co., Ltd. Jaktinib Hydrochloride Tablets Chemical Drug Class 1 New Drug and ZG0178. However, the inhibitory effect on the activity of Ba/F3-EpoR cell line […]
(§2) respectively. Obviously, this selective inhibition is associated with the aberrant expression of JAK2 in Ba/F3-EpoR-JAK2V617F mutant cells, and the degree of ZG0163 inhibition on JAK-STAT signaling pathway in this cell line. […]
(§3) cells, and the effects of ZG0163 was similar to those of positive control compounds, […]
(§4) In Vitro Inhibitory Effect of ZG0128 on Cell Lines Transfected with Oncogenes and Primary Blood Cells in Patients with Polycythemia Vera
(§5) In vitro cell culture assay was used to determine whether compound ZG0128 […]
(§6) cell line harboring a JAK2V617F mutation, and 8 HCD-57 cell lines stably transfected with oncogenic mutations JAK2V617F, MPLW515L, KITD816V, NPM-ALK, FLT3-ITD, FLT3D835H, FLT3D835Y and KRasG12V, respectively. In addition, study the inhibitory effects of compound ZG0128 on the growth of hematopoietic progenitor cells in patients with polycythemia vera.
(§7) 9 cell lines were similar to those of positive control drug ZG0192. At the sub-micromolar concentration, both compounds ZG0128 and ZG0192 were able to […]
(§8) the growth of HCD-57 cells transfected with oncogenic mutations JAK2V617F, […]
(§9) spectrum inhibitory effect on tyrosine kinases. […]

CYP2D6 = biological target: T1, CYP2D6 (Homo sapiens, UniProt P10635); assay type: in vitro ADME; details: microsomes
T1 construct: using mixed human liver microsomes and human primary hepatocytes as the in vitro; from tissue; host or cells: mixed (pooled) human liver microsomes

[5] = tested on: primary cells harboring the JAK2V617F mutation in patients with polycythemia vera; assay: Colony forming of erythroid hematopoietic cells of polycythemia vera patients; assay type: cell-based, human; details: 9 patients
From the text: as §1, §2, §3, §4, §5, §6, §7, §8, §9

CYP3A4 = biological target: T2, CYP3A4 (Homo sapiens, UniProt P08684); assay: CYP inhibition, mixed human liver microsomes; assay type: in vitro ADME
T2 construct: using mixed human liver microsomes and human primary hepatocytes as the in vitro; from tissue; host or cells: mixed (pooled) human liver microsomes

CYP2C19 = biological target: T3, CYP2C19 (Homo sapiens, UniProt P33261); assay type: in vitro ADME; details: microsomes
T3 construct: using mixed human liver microsomes and human primary hepatocytes as the in vitro; from tissue; host or cells: mixed (pooled) human liver microsomes

CYP2C9 = biological target: T4, CYP2C9 (Homo sapiens, UniProt P11712); assay type: in vitro ADME; details: microsomes
T4 construct: using mixed human liver microsomes and human primary hepatocytes as the in vitro; from tissue; host or cells: mixed (pooled) human liver microsomes

CYP2C8 = biological target: T5, CYP2C8 (Homo sapiens, UniProt P10632); assay type: in vitro ADME; details: microsomes
T5 construct: using mixed human liver microsomes and human primary hepatocytes as the in vitro; from tissue; host or cells: mixed (pooled) human liver microsomes

CYP1A2 = biological target: T6, CYP1A2 (Homo sapiens, UniProt P05177); assay type: in vitro ADME; details: microsomes
T6 construct: using mixed human liver microsomes and human primary hepatocytes as the in vitro; from tissue; host or cells: mixed (pooled) human liver microsomes

CYP2B6 = biological target: T7, CYP2B6 (Homo sapiens, UniProt P20813); assay type: in vitro ADME; details: microsomes
T7 construct: using mixed human liver microsomes and human primary hepatocytes as the in vitro; from tissue; host or cells: mixed (pooled) human liver microsomes

polycythemia vera = details: cited from earlier work
myelofibrosis [6] = tested on: myelofibrosis; design: method as in Ruxolitinib Phase I/II trials; details: within 3 months, 153 MF patients, ref Ruxolitinib Phase I/II trials; cited from earlier work
myelofibrosis [7] = tested on: myelofibrosis; design: method as in COMFORT-I; details: ref COMFORT-I; cited from earlier work
myelofibrosis [8] = tested on: myelofibrosis; design: method as in COMFORT-II; details: Week 48, ref COMFORT-II; cited from earlier work
[9] = 150 mg bid, ref Momelotinib Phase I/II
[10] = 150 mg qd, ref Momelotinib Phase I/II
[11] = 300 mg qd, ref Momelotinib Phase I/II
[12] = Grade 1, ref Momelotinib Phase I/II
[13] = Grade 2, ref Momelotinib Phase I/II
[14] = Grade 3, ref Momelotinib Phase I/II
[15] = Grade 4, ref Momelotinib Phase I/II
[16] = Total (n=166), ref Momelotinib Phase I/II
[17] = all cases (n=166), ref Momelotinib Phase I/II

T2 sequence (P08684 whole entry): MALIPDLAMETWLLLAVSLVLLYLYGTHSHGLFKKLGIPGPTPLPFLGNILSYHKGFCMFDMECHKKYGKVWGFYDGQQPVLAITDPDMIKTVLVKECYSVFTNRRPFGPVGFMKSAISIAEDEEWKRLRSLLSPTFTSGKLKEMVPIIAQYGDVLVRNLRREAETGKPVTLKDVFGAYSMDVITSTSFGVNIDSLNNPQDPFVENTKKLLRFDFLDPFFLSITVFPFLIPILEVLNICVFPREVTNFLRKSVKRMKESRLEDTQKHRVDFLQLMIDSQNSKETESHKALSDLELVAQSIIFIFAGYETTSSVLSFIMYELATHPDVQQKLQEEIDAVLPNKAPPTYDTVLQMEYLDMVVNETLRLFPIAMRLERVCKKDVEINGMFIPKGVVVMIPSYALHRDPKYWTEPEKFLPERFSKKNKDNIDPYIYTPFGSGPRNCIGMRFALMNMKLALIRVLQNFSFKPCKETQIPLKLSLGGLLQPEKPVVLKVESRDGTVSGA
T7 sequence (P20813 whole entry): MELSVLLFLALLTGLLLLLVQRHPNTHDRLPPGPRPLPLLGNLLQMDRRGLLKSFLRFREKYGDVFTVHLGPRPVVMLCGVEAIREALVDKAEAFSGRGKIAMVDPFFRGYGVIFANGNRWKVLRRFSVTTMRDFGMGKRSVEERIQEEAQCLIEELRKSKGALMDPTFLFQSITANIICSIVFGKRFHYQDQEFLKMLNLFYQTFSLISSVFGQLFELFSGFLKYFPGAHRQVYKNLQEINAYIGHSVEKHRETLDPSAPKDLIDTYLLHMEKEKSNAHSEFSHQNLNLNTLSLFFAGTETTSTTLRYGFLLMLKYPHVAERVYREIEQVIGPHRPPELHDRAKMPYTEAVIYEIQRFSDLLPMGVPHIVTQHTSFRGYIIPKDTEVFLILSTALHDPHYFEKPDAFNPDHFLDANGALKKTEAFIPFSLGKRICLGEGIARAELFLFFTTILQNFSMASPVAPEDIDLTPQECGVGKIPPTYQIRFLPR
T5 sequence (P10632 whole entry): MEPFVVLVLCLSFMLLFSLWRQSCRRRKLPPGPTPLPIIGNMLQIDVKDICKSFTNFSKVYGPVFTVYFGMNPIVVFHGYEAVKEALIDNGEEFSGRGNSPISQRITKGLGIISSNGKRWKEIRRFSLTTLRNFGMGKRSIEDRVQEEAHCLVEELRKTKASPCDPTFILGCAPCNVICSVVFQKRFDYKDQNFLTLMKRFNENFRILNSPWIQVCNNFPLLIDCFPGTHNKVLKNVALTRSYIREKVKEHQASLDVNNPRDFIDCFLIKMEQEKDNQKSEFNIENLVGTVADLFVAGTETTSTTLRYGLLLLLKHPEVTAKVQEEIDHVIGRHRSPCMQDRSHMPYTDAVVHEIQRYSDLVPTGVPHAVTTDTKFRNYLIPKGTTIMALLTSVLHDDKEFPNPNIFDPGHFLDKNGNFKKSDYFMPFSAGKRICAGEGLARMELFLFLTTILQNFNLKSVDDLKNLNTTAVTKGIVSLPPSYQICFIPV
T3 sequence (P33261 whole entry): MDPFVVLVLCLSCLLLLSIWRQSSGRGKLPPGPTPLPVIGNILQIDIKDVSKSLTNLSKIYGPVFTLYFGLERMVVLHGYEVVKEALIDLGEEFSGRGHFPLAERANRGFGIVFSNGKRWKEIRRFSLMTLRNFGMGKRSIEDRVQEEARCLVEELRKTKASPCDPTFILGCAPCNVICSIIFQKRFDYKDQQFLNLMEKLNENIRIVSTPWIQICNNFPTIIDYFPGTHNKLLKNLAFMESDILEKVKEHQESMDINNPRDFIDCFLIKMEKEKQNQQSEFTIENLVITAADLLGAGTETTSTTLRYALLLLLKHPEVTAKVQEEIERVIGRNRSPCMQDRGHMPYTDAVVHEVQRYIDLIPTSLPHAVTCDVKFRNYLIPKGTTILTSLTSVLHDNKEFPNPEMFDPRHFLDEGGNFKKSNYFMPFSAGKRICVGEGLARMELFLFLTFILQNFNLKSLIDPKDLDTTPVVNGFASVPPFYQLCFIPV
T6 sequence (P05177 whole entry): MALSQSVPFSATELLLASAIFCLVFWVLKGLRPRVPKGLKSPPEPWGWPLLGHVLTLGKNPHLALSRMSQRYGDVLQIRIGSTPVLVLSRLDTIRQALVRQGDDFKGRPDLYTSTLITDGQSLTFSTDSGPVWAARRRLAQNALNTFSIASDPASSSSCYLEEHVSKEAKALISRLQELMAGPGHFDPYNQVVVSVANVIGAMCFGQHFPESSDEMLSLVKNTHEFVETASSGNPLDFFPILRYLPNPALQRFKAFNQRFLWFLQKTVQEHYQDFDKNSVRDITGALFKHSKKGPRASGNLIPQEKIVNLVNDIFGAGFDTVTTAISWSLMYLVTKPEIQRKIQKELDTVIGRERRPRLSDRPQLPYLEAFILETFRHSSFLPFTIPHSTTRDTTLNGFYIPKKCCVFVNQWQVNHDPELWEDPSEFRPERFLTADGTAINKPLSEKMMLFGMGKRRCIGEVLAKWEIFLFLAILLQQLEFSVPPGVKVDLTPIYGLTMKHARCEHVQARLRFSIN
T4 sequence (P11712 whole entry): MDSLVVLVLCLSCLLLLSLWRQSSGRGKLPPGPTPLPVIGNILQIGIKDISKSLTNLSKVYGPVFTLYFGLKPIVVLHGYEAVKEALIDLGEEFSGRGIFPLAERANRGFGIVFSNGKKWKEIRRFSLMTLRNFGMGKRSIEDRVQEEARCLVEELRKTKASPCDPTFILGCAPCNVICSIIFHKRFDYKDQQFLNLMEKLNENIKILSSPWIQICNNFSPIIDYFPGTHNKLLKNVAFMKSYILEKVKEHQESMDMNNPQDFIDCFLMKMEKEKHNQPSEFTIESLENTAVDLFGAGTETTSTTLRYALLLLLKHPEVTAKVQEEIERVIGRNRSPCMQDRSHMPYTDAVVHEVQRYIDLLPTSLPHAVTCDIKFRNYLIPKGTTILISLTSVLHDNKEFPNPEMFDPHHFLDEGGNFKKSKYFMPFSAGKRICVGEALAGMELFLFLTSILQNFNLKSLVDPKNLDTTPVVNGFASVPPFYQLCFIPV
T1 sequence (P10635 whole entry): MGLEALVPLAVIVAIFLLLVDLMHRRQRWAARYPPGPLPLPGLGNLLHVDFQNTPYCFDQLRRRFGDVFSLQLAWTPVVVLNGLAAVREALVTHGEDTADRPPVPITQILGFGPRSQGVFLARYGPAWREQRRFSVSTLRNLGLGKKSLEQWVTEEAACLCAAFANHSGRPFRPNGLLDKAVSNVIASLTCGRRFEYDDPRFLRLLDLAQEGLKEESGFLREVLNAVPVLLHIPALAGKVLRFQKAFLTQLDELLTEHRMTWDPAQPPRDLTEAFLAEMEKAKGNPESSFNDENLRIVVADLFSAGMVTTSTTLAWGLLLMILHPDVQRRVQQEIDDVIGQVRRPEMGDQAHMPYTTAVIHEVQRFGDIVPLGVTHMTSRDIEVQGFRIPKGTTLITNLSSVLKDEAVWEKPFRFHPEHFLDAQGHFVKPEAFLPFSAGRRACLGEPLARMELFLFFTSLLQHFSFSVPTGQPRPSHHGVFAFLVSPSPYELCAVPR

N#CCNC(=O)c1ccc(-c2ccnc(Nc3ccc(N4CCOCC4)cc3)n2)cc1 [Momelotinib]
Average Reduction in Spleen Volume at Month 6 (myelofibrosis [1]; [9]): -46%
Hemoglobin Elevation of 2 g/dL or Above (8 Weeks) (myelofibrosis [1]; [9]): 14%
IWG-MRT Anemia Response Rate (myelofibrosis [1]; [9]): 36%
Spleen Response (myelofibrosis [1]; [9]): 38%
Transfusion Independence Rate (12 Weeks) (myelofibrosis [1]; [9]): 57%
Average Reduction in Spleen Volume at Month 6 (myelofibrosis [1]; [10]): -36%
Hemoglobin Elevation of 2 g/dL or Above (8 Weeks) (myelofibrosis [1]; [10]): 11%
IWG-MRT Anemia Response Rate (myelofibrosis [1]; [10]): 48%
Spleen Response (myelofibrosis [1]; [10]): 32%
Transfusion Independence Rate (12 Weeks) (myelofibrosis [1]; [10]): 63%
Average Reduction in Spleen Volume at Month 6 (myelofibrosis [1]; [11]): -38%
Hemoglobin Elevation of 2 g/dL or Above (8 Weeks) (myelofibrosis [1]; [11]): 8%
IWG-MRT Anemia Response Rate (myelofibrosis [1]; [11]): 55%
Spleen Response (myelofibrosis [1]; [11]): 39%
Transfusion Independence Rate (12 Weeks) (myelofibrosis [1]; [11]): 75%
ALP Elevation (myelofibrosis [1]; [12]): 5%
ALT Elevation (myelofibrosis [1]; [12]): 9%
AST Elevation (myelofibrosis [1]; [12]): 9%
Amylase Elevation (myelofibrosis [1]; [12]): 7%
Anemia, drug-related AE (myelofibrosis [1]; [12]): 2%
Bilirubin Elevation (myelofibrosis [1]; [12]): 7%
Creatinine Elevation (myelofibrosis [1]; [12]): 5%
Diarrhea, drug-related AE (myelofibrosis [1]; [12]): 18%
Headache, drug-related AE (myelofibrosis [1]; [12]): 14%
Leukopenia, drug-related AE (myelofibrosis [1]; [12]): 2%
Lipase Elevation (myelofibrosis [1]; [12]): 8%
Nausea, drug-related AE (myelofibrosis [1]; [12]): 20%
Neutropenia, drug-related AE (myelofibrosis [1]; [12]): < 1%
Peripheral Neuropathy, drug-related AE (myelofibrosis [1]; [12]): 25%
Thrombocytopenia, Baseline Platelet > 150 x 109/L (n=97) (myelofibrosis [1]; [12]): 18%
Thrombocytopenia, drug-related AE (myelofibrosis [1]; [12]): 14%
Vertigo, drug-related AE (myelofibrosis [1]; [12]): 22%
ALP Elevation (myelofibrosis [1]; [13]): 1%
ALT Elevation (myelofibrosis [1]; [13]): 3%
AST Elevation (myelofibrosis [1]; [13]): 2%
Amylase Elevation (myelofibrosis [1]; [13]): 2%
Anemia, drug-related AE (myelofibrosis [1]; [13]): 2%
Bilirubin Elevation (myelofibrosis [1]; [13]): 2%
Creatinine Elevation (myelofibrosis [1]; [13]): 3%
Diarrhea, drug-related AE (myelofibrosis [1]; [13]): 4%
Leukopenia, drug-related AE (myelofibrosis [1]; [13]): < 1%
Lipase Elevation (myelofibrosis [1]; [13]): < 1%
Nausea, drug-related AE (myelofibrosis [1]; [13]): < 1%
Neutropenia, drug-related AE (myelofibrosis [1]; [13]): 2%
Peripheral Neuropathy, drug-related AE (myelofibrosis [1]; [13]): 2%
Thrombocytopenia, Baseline Platelet > 150 x 109/L (n=97) (myelofibrosis [1]; [13]): 1%
Thrombocytopenia, drug-related AE (myelofibrosis [1]; [13]): 8%
Vertigo, drug-related AE (myelofibrosis [1]; [13]): 1%
ALP Elevation (myelofibrosis [1]; [14]): 1%
ALT Elevation (myelofibrosis [1]; [14]): 2%
AST Elevation (myelofibrosis [1]; [14]): 1%
Anemia, drug-related AE (myelofibrosis [1]; [14]): 2%
Headache, drug-related AE (myelofibrosis [1]; [14]): 1%
Lipase Elevation (myelofibrosis [1]; [14]): 4%
Neutropenia, drug-related AE (myelofibrosis [1]; [14]): 1%
Thrombocytopenia, Baseline Platelet > 150 x 109/L (n=97) (myelofibrosis [1]; [14]): 9%
Thrombocytopenia, drug-related AE (myelofibrosis [1]; [14]): 17%
Leukopenia, drug-related AE (myelofibrosis [1]; [15]): < 1%
Neutropenia, drug-related AE (myelofibrosis [1]; [15]): 2%
Thrombocytopenia, Baseline Platelet > 150 x 109/L (n=97) (myelofibrosis [1]; [15]): 1%
Thrombocytopenia, drug-related AE (myelofibrosis [1]; [15]): 7%
Hemoglobin Elevation of 2 g/dL or Above (8 Weeks) (myelofibrosis [1]; [16]): 13%
IWG-MRT Anemia Response Rate (myelofibrosis [1]; [16]): 48%
Transfusion Independence Rate (12 Weeks) (myelofibrosis [1]; [16]): 68%
Average Reduction in Spleen Volume at Month 6 (myelofibrosis [1]; [17]): -38%
Spleen Response (myelofibrosis [1]; [17]): 37%
transfusion dependent patients with non-transfusion dependent duration of at least 12 weeks (myelofibrosis [1]; n=33, ref Momelotinib Phase I/II): 70%
patients with improvement of anemia (myelofibrosis [1]; ref Momelotinib Phase I/II): 59%
symptom controlled: bone pain (myelofibrosis [1]; ref Momelotinib Phase I/II): 33%
symptom controlled: cough (myelofibrosis [1]; ref Momelotinib Phase I/II): 29%
symptom controlled: fever (myelofibrosis [1]; ref Momelotinib Phase I/II): 100%
symptom controlled: night sweat (myelofibrosis [1]; ref Momelotinib Phase I/II): 57%
symptom controlled: pruritus (myelofibrosis [1]; ref Momelotinib Phase I/II): 52%
First Dose Effect: hypotension (myelofibrosis [2]): 5%
First Dose Effect: transient dizziness (myelofibrosis [2]): 10%
Grade 3/4 thrombocytopenia (myelofibrosis [2]): 30%
median maintenance duration of anemia response (myelofibrosis [2]): 1,042 days
median spleen response duration (myelofibrosis [2]): 785 days
patients with anemia response (myelofibrosis [2]): 53%
patients with spleen response (IWG-MRT) (myelofibrosis [2]): 39%
CR (myelofibrosis [3]): 0 (0%) n (%)
Clinical Improvement (CI) (myelofibrosis [3]): 34 (57%) n (%)
PR (myelofibrosis [3]): 1 (1.7%) n (%)
patients with symptom improvement (myelofibrosis [3]): 57%
Anemia Response (myelofibrosis [3]): 42 (19; 45%) n (responses; %)
Anemia Response in Transfusion-Dependent Patients (myelofibrosis [3]): 32 (17; 53%) n (responses; %)
Spleen Response (myelofibrosis [3]): 57 (24; 42%) Evaluables (responses; %)
anemia response rate (myelofibrosis [3]): 45%
spleen volume reduction response rate (myelofibrosis [3]): 42%

N#CCNC(=O)c1ccc(-c2ccnc(Nc3ccc(N4CCOCC4)cc3)n2)cc1 [ZG0128, Jaktinib Dihydrochloride Monohydrate]
IC50 ([4]; J53Z1 and HCD-57 with JAK2V617F, MPLW515L, KITD816V, FLT3-ITD, FLT3D835H, FLT3D835Y, read-out: IC50, growth inhibition, range over cell lines): 0.31 to 0.71 µM
IC50 ([4]; transfected JAK2V617F cell lines, read-out: IC50): 0.61 µM
IC50 (CYP2D6): > 100 µM
IC50 [5]: 0.18 µM
IC50 (CYP3A4; microsomes): > 100 µM
IC50 (CYP3A4; midazolam 1'-hydroxylation, read-out: IC50): > 100 µM
IC50 (CYP2C19): > 100 µM
IC50 (CYP2C9): > 100 µM
IC50 (CYP2C8): > 100 µM
IC50 (CYP1A2): > 100 µM
IC50 (CYP2B6): > 100 µM

N#CC[C@H](C1CCCC1)n1cc(-c2ncnc3[nH]ccc23)cn1 [Ruxolitinib]
Thrombus, patients (polycythemia vera; Ruxolitinib group, ref RESPONSE study): 1
Herpes zoster infection (polycythemia vera; in vivo): 6%
herpes zoster incidence (polycythemia vera; in vivo): 4.7%
patients with >50% reduction in spleen volume (myelofibrosis [6]): 44%
CR (myelofibrosis [3]): 0 (0%) n (%)
Clinical Improvement (CI) (myelofibrosis [3]): 9 (18%) n (%)
PR (myelofibrosis [3]): 0 (0%) n (%)
patients with symptom improvement (myelofibrosis [3]): 18%
Anemia Response (myelofibrosis [3]): 19 (2; 11%) n (responses; %)
Anemia Response in Transfusion-Dependent Patients (myelofibrosis [3]): 12 (2; 17%) n (responses; %)
Spleen Response (myelofibrosis [3]): 46 (7; 15%) Evaluables (responses; %)
anemia response rate (myelofibrosis [3]): 11%
spleen volume reduction response rate (myelofibrosis [3]): 15%
patients with ≥35% reduction in spleen volume (myelofibrosis [7]): 41.9%
patients with ≥35% reduction in spleen volume (myelofibrosis [8]): 28%
